Experimental data published in patent publication US20040171688A1, “Carboxylic acids and derivatives thereof and pharmaceutical compositions containing them” (priority 1997, published 2004).

Biological target: T1, HNF-4α (Rattus norvegicus, UniProt P22449)
T1 sequence (P22449 1-464 isoform P22449-2): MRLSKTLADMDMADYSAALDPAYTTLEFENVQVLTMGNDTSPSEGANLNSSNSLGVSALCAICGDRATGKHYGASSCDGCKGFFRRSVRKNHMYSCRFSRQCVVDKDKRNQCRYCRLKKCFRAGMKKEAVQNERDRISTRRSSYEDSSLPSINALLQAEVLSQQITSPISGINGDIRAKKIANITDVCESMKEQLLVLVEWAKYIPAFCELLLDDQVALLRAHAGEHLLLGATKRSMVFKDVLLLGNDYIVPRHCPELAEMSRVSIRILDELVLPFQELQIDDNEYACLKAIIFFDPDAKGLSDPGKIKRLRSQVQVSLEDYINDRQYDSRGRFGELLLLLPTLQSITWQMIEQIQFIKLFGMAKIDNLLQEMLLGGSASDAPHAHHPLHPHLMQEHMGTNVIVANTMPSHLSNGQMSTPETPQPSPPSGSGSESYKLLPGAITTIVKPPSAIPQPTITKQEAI
Assay: Transfection assay: COS-7 cells cotransfected with (C3P)3-TK-CAT reporter and pSG5-HNF-4α
Assay type: cell-based
Design: expressed in transfected cells; host or cells: COS-7
Conditions: for EC50: proligands added to culture medium of COS-7 cells (FIG. 4b), read-out: EC50 of HNF-4α suppression (CAT activity); for effect on HNF-4α dependent transcription (CAT activity): free fatty acids added to culture medium of COS-7 cells (FIG. 4a); for inhibition of HNF-4α transcriptional activity, effectiveness in words: transfection assays, added to culture medium
Protocol: a. […] Fold induction of CAT activity by transfected HNF-4I is determined by evaluating CAT activity in the presence of pSG5-HNF-4I as compared with pSG5 plasmid and as function of respective fatty acids added to the culture medium as indicated. The figure summarizes 3-4 independent experiments for each fatty acid. Mean ± S.E.
b. […] Fold induction refers to CAT activity in cells incubated with 3,3,12,12-tetramethyl-tetradecanedioic acid (∘), 3,3,14,14-tetramethyl-hexadecanedioic acid (□) and 3,3,16,16-tetramethyl-octadecanedioic acid (Δ) proligands normalized to the activity in cells incubated in the absence of added proligands.
COS-7 cells cotransfected for 6 h with the (C3P)3-TK-CAT reporter plasmid (5 μg) and with either the pSG5-HNF-4α expression plasmid ([…]) or the pSG5 plasmid (0.025 μg) added by calcium phosphate precipitation were cultured in serum free medium with fatty acids (complexed with albumin in a molar ratio of 6:1) added as indicated. β-Galactosidase expression vector pRSGAL (1 μg) added to each precipitate served as an internal control for transfection. The (C3P)3-TK-CAT construct was prepared by inserting a synthetic oligonucleotide encompassing the (−87/−66) Apo CIII promoter sequence (5′-[…]-3′) flanked by HindIII restriction site into pBLCAT2^47 upstream of the −105 bp thymidine kinase promoter. The construct containing three copies of the synthetic oligonucleotide in the direct orientation was selected and confirmed by sequencing.
The intracellular effect of HNF-4α ligands on HNF-4α mediated transcription was evaluated in COS-7 cells cotransfected with an expression vector for HNF-4α and with a CAT reporter plasmid driven by a thymidine kinase promoter and enhanced by one to three C3P copies of the apo CIII gene promoter. Transfected cells were incubated in the presence of free fatty acids and xenobiotic amphipathic carboxylates representing agonistic or antagonistic HNF-4α proligands.

| SMILES | EC50 | effect on HNF-4α dependent transcription (CAT activity) | inhibition of HNF-4α transcriptional activity, effectiveness in words |
| --- | --- | --- | --- |
| CC(C)(CCCCCCCCCCC(C)(C)C(=O)O)C(=O)O [2,2,13,13-tetramethyl-tetradecane dioic acid] | 230 µM |  |  |
| CC/C=C\C/C=C\C/C=C\CCCCCCCC(=O)O [α-linolenic(18:3), α-linolenic(18:3) acid] |  | suppressive |  |
| CC(C)(CCCCCCCCC(C)(C)CCC(=O)O)CCC(=O)O [4,4,13,13-tetramethyl-hexadecane dioic acid] | 150 µM |  | Highly effective |
| CCCCCCCCCCCCCCCC(=O)O [palmitic(16:0) acid] |  | dose dependent activation |  |
| CC(C)(CCCCCCCCCCCCCCCO)CC(=O)O [18-hydroxy-3,3-dimethyl-octa-decanoic acid] |  |  | effective |
| CC(C)(CCCCCCCCCCCCCCO)C(=O)O [16-hydroxy-2,2-dimethyl-hexadecanoic acid] |  |  | effective |
| CC(C)(CCCCCCCCCCC(C)(C)CCC(=O)O)CCC(=O)O [4,4,15,15-tetramethyl-octadecane dioic acid] | 150 µM |  | Highly effective |
| CC(C)(CCCCCCCCCCCCCCO)CCC(=O)O [18-hydroxy-4,4-dimethyl-octadecanoic acid] |  |  | effective |
| CC/C=C\C/C=C\C/C=C\C/C=C\C/C=C\CCCC(=O)O [eicosapentaenoic(20:5) acids, eicosapentaenoic(20:5) acid] |  | suppressive |  |
| CC(C)(CCCCCCCCCCCCCCCCO)C(=O)O [18-hydroxy-2,2-dimethyl-octadecanoic acid] |  |  | effective |
| O=C(O)CCCCCCCCCCCCCCCO [16-hydroxy-hexadecanoic acid] |  |  | effective |
| CC(C)(CCCCCCCCCCCCCCC(C)(C)C(=O)O)C(=O)O [2,2,17,17-tetramethyl-octadecane dioic acid] | 150 µM |  | Highly effective |
| CC(C)(CCCCCCCCCCCCC(C)(C)C(=O)O)C(=O)O [2,2,15,15-tetramethyl-hexadecane dioic acid] | 150 µM |  | Highly effective |
| CC(C)(CCCCCCCCCCCCCO)CC(=O)O [16-hydroxy-3,3-dimethyl-hexadecanoic acid] |  |  | effective |
| CC(C)(CCCCCCCCCCCCO)CCC(=O)O [16-hydroxy-4,4-dimethyl-hexadecanoic acid] |  |  | effective |
| O=C(O)CCCCCCCCCCCCCCCCCO [18-hydroxy-octadecanoic acid] |  |  | effective |
| COc1ccc2c(c1)c(CC(=O)O)c(C)n2C(=O)c1ccc(Cl)cc1 [Indomethacine, reference compound] | 130 µM |  |  |
